Where two headings read alike, the source gives them in different places.
Assays:
[1] = [3H]Thymidine incorporation assay (cell toxicity); conditions: human
[2] = system: HCV replicon (genotype 1b) in Huh7 cell line ET; experiment: microbe, parasite or virus in culture; assay type: cell-based, HCV genotype 1b; conditions: Hepatitis C virus
[3] = system: HCV sub-genomic replicon of genotype 1a in replicon cell line W11.8; experiment: microbe, parasite or virus in culture; assay type: cell-based, HCV genotype 1a; conditions: Hepatitis C virus
From the text: This procedure below describes the HCV replicon assay using a Huh7 hepatoma cell line harboring a highly cell culture-adapted replicon (genotype 1b) (hereafter named cell line ET). The ET cells contained the highly cell culture-adapted replicon I389luc-ubi-neo/NS3-3′/5.1 construct that carried, in addition to the neomycin gene, an integrated copy to the firefly luciferase gene (Krieger, N; Lohmann, V; Bartenschlager, R. Enhancement of hepatitis C virus RNA replication by cell culture-adaptive mutations. J. Virol. 2001, 75, 4614-4624). A replicon cell line W11.8, containing the 1a genotype of HCV was also used. These two cell lines (genotype 1b and 1a) allowed measurement of RNA replication and translation by measuring luciferase activity (against genotype 1b) or by measuring the NS5A level using the ELISA assay (against genotype 1a). […] ET cell lines were maintained in cultures at a sub-confluent level (<85%). The culture media used for cell passaging consisted of DMEM (Gibco BRL Laboratories, Mississauga, ON, Canada) supplemented with 10% fetal bovine serum with 1% penicilin/streptomycin, 1% glutamine, 1% sodium pyruvate, 1% non-essential amino acids, and 180 µg/ml of G418 final concentration.
Replicon cell lines W11.8 containing a sub-genomic replicon of genotype 1a was used for the HCV Replicon Cell-Based detection using the ELISA. The RNA replication in presence of different drug concentrations was indirectly measured in these cell lines by the level of NS5A protein content upon drug treatment for four days. The NS5A is a non-structural protein of HCV and is used as marker of HCV replication in this assay.
For the treatment of the cells with the testing drug, Culture medium was removed from the 175 cm^2 T-flask by aspiration. Cell monolayer was rinsed with 10-20 mL of PBS 1× at room temperature. PBS was removed by aspiration. Cells were trypsinized using 3 mL of Trypsin (0.25%)/EDTA (0.1%) solution. Flasks were incubated at 37° C. (incubator) for 7 minutes. Complete medium (9 mL) without G418 is then added. Cell clumps were disrupted by pipetting up and down several times.
The cell suspension was then transferred to a 50 mL Falcon polypropylene tube. Cells were then counted several times using the haemocytometer. Cells were diluted at 50,000 cells/mL with complete DMEM without G418, then transferred into a sterile reservoir. Using a multichannel pipet, approximately 5,000 viable cells (100 μL) were plated per well in a white opaque 96-well microtiter plate. After an incubation period of 2-4 hours at 37° C. in a 5% CO2 incubator, compounds were added at various concentrations.
Drugs were resuspended in DMSO at a stock concentration of 100 mM or 10 mM. […] Then, drugs were diluted at twice the final concentration in the same medium (without G418) described earlier, in sterile 96-deep well plate and according to a particular template (see Appendix). One volume (100 μL) of each drug dilution was then added to each well that contains cells.
Sixteen wells were used as control (0% inhibition) without drug. Eight wells were used as background control (100% inhibition) containing 2 μM (final concentration) of the reference compound. […] Values from 100% inhibited wells were averaged and used as the background value. Cells are further incubated for 4 days at 37° C. in a 5% CO2 incubator.
For the measurement of NS5A protein content, following the incubation time of four days, the media was throwed into an appropriate waste container by inverting the plate. Any residual liquid was removed by tapping gently on absorbent paper several times. The plates were then washed once with 150 μL of PBS per well, and then incubated for 5 minutes at room temperature on a shaker (500 rpm).

[4] = Huh-7, read-out: HCV-Replicon-(Luci-ET) 1b_IC50
[5] = W11.8, read-out: HCV-Replicon-ELISA-1a IC50
[6] = Huh-7, 96 h, read-out: HCV-Replicon (Luci-ET)-1b_IC50
[7] = W11.8, 96 h, read-out: HCV-Replicon-ELISA-1a IC50

## CC1CCC(C(=O)N(CCC(=O)N(C)C)c2cc(C#CC(C)(C)C)sc2C(=O)O)CC1 (stereo not drawn) [Compound 98]
[1]
  CC50 at 72 h: > 100 µM
[2]; [4]
  IC50: < 0.1 µM
[3]; [5]
  IC50: 0.1 to 1 µM

## CC(C)(C)C#Cc1cc(N(CC(=O)N2CCCC2)C(=O)[C@H]2CC[C@H](C)CC2)c(C(=O)O)s1 [Compound 6, 5-(3,3-Dimethyl-but-1-ynyl)-3-[(trans-4-methyl-cyclohexanecarbonyl)-(2-oxo-2-pyrrolidin-1-yl-ethyl)-amino]-thiophene-2-carboxylic acid]
[1]
  CC50 at 72 h: > 100 µM
[2]; [4]
  IC50: < 0.1 µM
[3]; [5]
  IC50: < 0.1 µM

## CCN1CCCC[C@H](N(c2cc(C#CC(C)(C)C)sc2C(=O)O)C(=O)[C@H]2CC[C@H](C)CC2)C1=O [Compound 134, (S)-5-(3,3-Dimethylbut-1-ynyl)-3-((trans)-4-methyl-N-(1-ethyl-2-oxoazepan-3-yl)cyclohexanecarboxamido)thiophene-2-carboxylic acid]
[1]
  CC50 at 72 h: 10 to 100 µM
[2]; [6]
  IC50: < 0.1 µM
[3]; [7]
  IC50: < 0.1 µM

## CN(C)C(=O)CN(c1cc(C#CC(C)(C)C)sc1C(=O)O)C(=O)[C@H]1CC[C@H](C)CC1 [Compound 5, 5-(3,3-Dimethyl-but-1-ynyl)-3-[dimethylcarbamoylmethyl-(trans-4-methyl-cyclohexanecarbonyl)-amino]-thiophene-2-carboxylic acid]
[1]
  CC50 at 72 h: > 100 µM
[2]; [4]
  IC50: < 0.1 µM
[3]; [5]
  IC50: < 0.1 µM

## CC(C)(C)C#Cc1cc(N(C(=O)[C@H]2CC[C@H](C)CC2)[C@H]2CCN([C@H]3CCOC3)C2=O)c(C(=O)O)s1 [Compound 156, 5-(3,3-Dimethylbut-1-ynyl)-3-[(trans-4-methylcyclohexanecaronyl)-[(3S)-2-oxo-1-[(3S)-tetrahydrofuran-3-yl]pyrrolidin-3-yl]amino]thiophene-2-carboxylic acid]
[2]; [6]
  IC50: < 0.1 µM
[3]; [7]
  IC50: 0.004 µM

## CC[C@@H](C(=O)N1CCOCC1)N(c1cc(C#CC(C)C)sc1C(=O)O)C(=O)[C@H]1CC[C@H](C)CC1 [Compound 90, 5-(3-Methylbut-1-ynyl)-3-[(trans-4-methylcyclohexanecarbonyl)-[(1S)-1-(morpholine-4-carbonyl)propyl]amino]thiophene-2-carboxylic acid]
[1]
  CC50 at 72 h: > 100 µM
[2]; [4]
  IC50: < 0.1 µM

## CO[C@H](C)[C@@H](C(=O)N1CCOCC1)N(c1cc(C#CC(C)(C)C)sc1C(=O)O)C(=O)[C@H]1CC[C@H](C)CC1 [Compound 58, 5-(3,3-Dimethylbut-1-ynyl)-3-[[(1S,2R)-2-methoxy-1-(morpholine-4-carbonyl)propyl]-(trans-4-methylcyclohexanecarbonyl)amino]thiophene-2-carboxylic acid]
[1]
  CC50 at 72 h: > 100 µM
[2]; [4]
  IC50: < 0.1 µM

## CCC#Cc1cc(N(CC(=O)N2CCOCC2)C(=O)[C@H]2CC[C@H](C)CC2)c(C(=O)O)s1 [Compound 132, 5-But-1-ynyl-3-[(trans-4-methylcyclohexanecarbonyl)-(2-morpholino-2-oxo-ethyl)amino]thiophene-2-carboxylic acid]
[1]
  CC50 at 72 h: > 100 µM
[2]; [6]
  IC50: 0.1 to 1 µM

## C[C@@H](C(=O)NC1CCC(O)CC1)N(c1cc(C#CC(C)(C)C)sc1C(=O)O)C(=O)[C@H]1CC[C@H](C)CC1 (stereo partly drawn) [Compound 31, 5-(3,3-Dimethylbut-1-ynyl)-3-[[(1S)-2-[(4-hydroxycyclohexyl)amino]-1-methyl-2-oxo-ethyl]-(trans-4-methylcyclohexanecarbonyl)amino]thiophene-2-carboxylic acid]
[1]
  CC50 at 72 h: > 100 µM
[2]; [4]
  IC50: < 0.1 µM

## C[C@H](CN(c1cc(C#CC(C)(C)C)sc1C(=O)O)C(=O)[C@H]1CC[C@H](C)CC1)C(=O)N1CCOCC1 [Compound 109, 5-(3,3-dimethylbut-1-ynyl)-3-[(trans-4-methylcyclohexanecarbonyl)-[(2R)-2-methyl-3-morpholino-3-oxo-propyl]amino]thiophene-2-carboxylic acid]
[1]
  CC50 at 72 h: > 100 µM
[2]; [4]
  IC50: < 0.1 µM

## CN1CCOC[C@H](N(C(=O)c2ccc(Cl)cc2Cl)c2cc(C#CC(C)(C)C)sc2C(=O)O)C1=O [Compound 147, (S)-5-(3,3-Dimethylbut-1-ynyl)-3-[(2,4-dichlorobenzoyl)-N-(4-methyl-5-oxo-1,4-oxazepan-6-yl)amino]thiophene-2-carboxylic acid]
[1]
  CC50 at 72 h: > 100 µM
[2]; [6]
  IC50: 0.1 to 1 µM

## CN1CCC[C@H](N(c2cc(C#CC(C)(C)C)sc2C(=O)O)C(=O)[C@H]2CC[C@H](C)CC2)C1=O [Compound 117, 5-(3,3-dimethylbut-1-yn-1-yl)-3-(trans-4-methyl-N—((S)-1-methyl-2-oxopiperidin-3-yl)cyclohexanecarboxamido)thiophene-2-carboxylic acid]
[1]
  CC50 at 72 h: > 100 µM
[2]; [4]
  IC50: < 0.1 µM

## C[C@@H](C(=O)N1CCOC(C)(C)C1)N(c1cc(C#CC(C)(C)C)sc1C(=O)O)C(=O)[C@H]1CC[C@H](C)CC1 [Compound 50, 5-(3,3-Dimethylbut-1-ynyl)-3-[[(1S)-2-(2,2-dimethylmorpholin-4-yl)-1-methyl-2-oxo-ethyl]-(trans-4-methylcyclohexanecarbonyl)amino]thiophene-2-carboxylic acid]
[1]
  CC50 at 72 h: > 100 µM
[2]; [4]
  IC50: < 0.1 µM

## COC1CCCN(C(=O)[C@H](C)N(c2cc(C#CC(C)(C)C)sc2C(=O)O)C(=O)[C@H]2CC[C@H](C)CC2)C1 (stereo partly drawn) [Compound 40, 5-(3,3-Dimethylbut-1-ynyl)-3-[[(1S)-2-(3-methoxy-1-piperidyl)-1-methyl-2-oxo-ethyl]-(trans-4-methylcyclohexanecarbonyl)amino]thiophene-2-carboxylic acid]
[1]
  CC50 at 72 h: > 100 µM
[2]; [4]
  IC50: < 0.1 µM

## CC(C)N1CC[C@@H](N(c2cc(C#CC(C)(C)C)sc2C(=O)O)C(=O)[C@H]2CC[C@H](C)CC2)C1=O [Compound 141, 5-(3,3-dimethylbut-1-ynyl)-3-[[(3R)-1-isopropyl-2-oxo-pyrrolidin-3-yl]-(trans-4-methylcyclohexanecarbonyl)amino]thiophene-2-carboxylic acid]
[1]
  CC50 at 72 h: > 100 µM
[2]; [6]
  IC50: < 0.1 µM

## C[C@H]1CC[C@H](C(=O)N(CC(=O)N2CCOCC2)c2cc(-c3ccccc3)sc2C(=O)O)CC1 [Compound 121, 3-[(trans-4-methylcyclohexanecarbonyl)-N-(2-morpholino-2-oxoethyl)amino]-5-phenylthiophene-2-carboxylic acid]
[1]
  CC50 at 72 h: > 100 µM
[2]; [6]
  IC50: 1 to 10 µM

## CC(CN(c1cc(C#CC(C)(C)C)sc1C(=O)O)C(=O)[C@H]1CC[C@H](C)CC1)C(=O)N1CCOCC1 (relative stereo) [Compound 104, 5-(3,3-Dimethylbut-1-ynyl)-3-[(trans-4-methylcyclohexanecarbonyl)-(2-methyl-3-morpholino-3-oxo-propyl)amino]thiophene-2-carboxylic acid]
[1]
  CC50 at 72 h: > 100 µM
[2]; [4]
  IC50: < 0.1 µM

## CC(CC(=O)N(C)C)N(c1cc(C#CC(C)(C)C)sc1C(=O)O)C(=O)[C@H]1CC[C@H](C)CC1 (relative stereo) [Compound 99, 3-[[3-(Dimethylamino)-1-methyl-3-oxo-propyl]-(trans-4-methylcyclohexanecarbonyl)amino]-5-(3,3-dimethylbut-1-ynyl)thiophene-2-carboxylic acid]
[1]
  CC50 at 72 h: 10 to 100 µM
[2]; [4]
  IC50: < 0.1 µM

## COC1CCN(C(=O)[C@H](C)N(c2cc(C#CC(C)(C)C)sc2C(=O)O)C(=O)[C@H]2CC[C@H](C)CC2)CC1 [Compound 53, 5-(3,3-Dimethylbut-1-ynyl)-3-[[(1S)-2-(4-methoxy-1-piperidyl)-1-methyl-2-oxo-ethyl]-(trans-4-methylcyclohexanecarbonyl)amino]thiophene-2-carboxylic acid]
[1]
  CC50 at 72 h: > 100 µM
[2]; [4]
  IC50: < 0.1 µM
